According to patent publication US6022861A, “Ketoheterocyclic inhibitors of factor Xa” (COR Therapeutics, Inc., priority 1995, dated 2000):

Tests used:
[1] = rabbit, in vivo
Description: (§2) Rabbits were anesthetized with I.M. injections of Ketamine, Xylazine, and Acepromazine cocktail. A standardized protocol consisted of insertion of a thrombogenic cotton thread and copper wire apparatus into the abdominal vena cava of the anesthetized rabbit. A non-occlusive thrombus was allowed to develop in the central venous circulation and inhibition of thrombus growth was used as a measure of the antithrombotic activity of the studied compounds. Test agents or control saline were administered through a marginal ear vein catheter. A femoral vein catheter was used for blood sampling prior to and during steady state infusion of test compound. Initiation of thrombus formation begins immediately after advancement of the cotton thread apparatus into the central venous circulation. Test compounds were administered from time=30 min to time=150 min at which the experiment was terminated. The rabbits were euthanized and the thrombus excised by surgical dissection and characterized by weight and histology. Blood samples were analyzed for changes in hematological and coagulation parameters.

[2] = target: factor Xa (Homo sapiens, UniProt P00742); test: Factor Xa amidolytic assay (chromogenic substrate S-2765); format: biochemical; settings: read-out: Inhibitory Activity (IC50) Factor Xa
Description: (§1) In the assays for thrombin, prothrombinase and factor Xa, a synthetic chromogenic substrate is added to a solution containing test compound and the enzyme of interest and the residual catalytic activity of that enzyme is determined spectrophotometrically. The IC50 of a compound is determined from the substrate turnover.

[3] = target: prothrombinase complex (Homo sapiens, UniProt P00742); test: Prothrombinase inhibition assay (plasma free system, Chromozym TH); format: biochemical; settings: read-out: Inhibitory Activity (IC50) Prothrombinase
Chain of prothrombinase complex (P00742 41-179 limits assumed): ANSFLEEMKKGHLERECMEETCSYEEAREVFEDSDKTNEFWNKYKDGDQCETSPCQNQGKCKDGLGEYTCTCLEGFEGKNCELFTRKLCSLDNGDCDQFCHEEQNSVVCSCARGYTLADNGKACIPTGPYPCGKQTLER
Chain of prothrombinase complex (P00742 235-488 limits assumed): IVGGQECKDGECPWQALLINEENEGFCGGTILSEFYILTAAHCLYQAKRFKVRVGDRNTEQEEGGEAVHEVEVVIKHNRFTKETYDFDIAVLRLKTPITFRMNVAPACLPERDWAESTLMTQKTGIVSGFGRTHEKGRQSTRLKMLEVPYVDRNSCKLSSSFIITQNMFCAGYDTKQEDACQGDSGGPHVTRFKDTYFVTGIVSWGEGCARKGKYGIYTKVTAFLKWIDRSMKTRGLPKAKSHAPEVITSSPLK
Chain of prothrombinase complex (P12259 29-737 partner limits assumed): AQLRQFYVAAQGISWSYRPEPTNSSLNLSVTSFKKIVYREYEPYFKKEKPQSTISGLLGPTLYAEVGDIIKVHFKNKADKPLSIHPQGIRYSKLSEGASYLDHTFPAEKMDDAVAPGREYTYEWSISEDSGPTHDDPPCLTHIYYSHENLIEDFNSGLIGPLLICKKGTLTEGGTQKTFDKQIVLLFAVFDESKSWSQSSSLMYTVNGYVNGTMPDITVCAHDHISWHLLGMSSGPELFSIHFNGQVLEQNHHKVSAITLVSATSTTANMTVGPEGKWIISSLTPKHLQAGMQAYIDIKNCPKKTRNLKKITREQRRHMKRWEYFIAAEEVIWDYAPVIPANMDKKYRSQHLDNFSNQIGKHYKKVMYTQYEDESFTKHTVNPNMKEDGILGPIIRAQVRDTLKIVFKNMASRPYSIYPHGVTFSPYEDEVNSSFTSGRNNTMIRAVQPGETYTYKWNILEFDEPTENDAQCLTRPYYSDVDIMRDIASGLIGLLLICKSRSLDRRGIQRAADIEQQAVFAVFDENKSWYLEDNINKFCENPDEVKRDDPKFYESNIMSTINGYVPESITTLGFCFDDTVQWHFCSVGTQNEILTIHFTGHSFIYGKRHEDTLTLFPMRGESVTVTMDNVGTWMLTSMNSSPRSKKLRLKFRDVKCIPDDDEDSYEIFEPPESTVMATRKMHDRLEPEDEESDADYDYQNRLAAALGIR
Chain of prothrombinase complex (P12259 1574-2224 partner limits assumed): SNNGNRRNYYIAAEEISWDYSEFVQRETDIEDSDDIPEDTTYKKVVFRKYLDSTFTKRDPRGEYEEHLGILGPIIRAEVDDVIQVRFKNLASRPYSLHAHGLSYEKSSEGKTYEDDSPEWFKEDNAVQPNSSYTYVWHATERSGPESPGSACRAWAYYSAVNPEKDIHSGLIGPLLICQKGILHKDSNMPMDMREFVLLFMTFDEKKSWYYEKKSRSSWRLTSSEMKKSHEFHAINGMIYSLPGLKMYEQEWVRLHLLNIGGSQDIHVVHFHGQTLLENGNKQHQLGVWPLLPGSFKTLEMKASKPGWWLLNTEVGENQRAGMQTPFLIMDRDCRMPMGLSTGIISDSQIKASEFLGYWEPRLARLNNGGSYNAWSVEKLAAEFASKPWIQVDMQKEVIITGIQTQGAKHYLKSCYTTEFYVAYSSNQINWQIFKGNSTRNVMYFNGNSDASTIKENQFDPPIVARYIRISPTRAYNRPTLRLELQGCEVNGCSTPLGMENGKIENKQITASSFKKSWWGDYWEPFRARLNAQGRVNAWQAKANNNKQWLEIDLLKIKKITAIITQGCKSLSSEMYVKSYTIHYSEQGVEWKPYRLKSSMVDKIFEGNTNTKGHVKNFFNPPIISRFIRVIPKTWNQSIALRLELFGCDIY
Description: as §1

[4] = target: thrombin (Homo sapiens, UniProt P00734); test: Thrombin amidolytic assay (Chromozym TH); format: biochemical; settings: read-out: Inhibitory Activity (IC50) Thrombin
Description: as §1, with “The compounds of the present invention are dissolved in buffer to give solutions containing concentrations such that assay concentrations range from 0 to 100 μM. In” for “In”
The factor Xa and thrombin assays were performed at room temperature, in 0.02 M Tris·HCl buffer, pH 7.5, containing 0.15 M NaCl. The rates of hydrolysis of the para-nitroanilide substrate S-2765 (Chromogenix) for factor Xa, and the substrate Chromozym TH (Boehringer Mannheim) for thrombin following preincubation of the enzyme with inhibitor for 5 minutes at room temperature, and were determined using the Softmax 96-well plate reader (Molecular Devices), monitored at 405 nm to measure the time dependent appearance of p-nitroaniline.

[5] = Coagulation parameters (aPTT, PT) in rabbit venous thrombosis model; format: in vivo; settings: for PT fold increase over baseline / aPTT fold increase over baseline: steady state, mean ± SD
Description: as §2

[6] = system: Rabbit Model of Venous Thrombosis; test: Rabbit deep vein thrombosis model, inhibition of thrombus growth; format: in vivo; settings: for % Inhibition of Thrombosis: rabbit
Description: as §2

[7] = highest dose (100 μg/kg+2.57 μg/kg/min)

Chain of factor Xa (P00742 41-179 limits assumed): as the sequence (P00742 41-179 limits assumed) above
Chain of factor Xa (P00742 235-488 limits assumed): as the sequence (P00742 235-488 limits assumed) above

Row | effects on hematological parameters [1] | IC50 [2] | IC50 [3] | IC50 [4] | Structure (SMILES) | PT fold increase over baseline ([5]; 50 + 1.28 (μg/kg + μg/kg/min)) | aPTT fold increase over baseline ([5]; 50 + 1.28 (μg/kg + μg/kg/min)) | PT fold increase over baseline ([5]; 75 + 1.93 (μg/kg + μg/kg/min)) | aPTT fold increase over baseline ([5]; 75 + 1.93 (μg/kg + μg/kg/min)) | PT fold increase over baseline ([5]; 100 + 2.57 (μg/kg + μg/kg/min)) | aPTT fold increase over baseline ([5]; 100 + 2.57 (μg/kg + μg/kg/min)) | effect on PT prolongation [5, 7] | effect on aPTT prolongation [5, 7] | antithrombotic efficacy in the rabbit venous thrombosis model ([6]; at the higher doses evaluated) | % Inhibition of Thrombosis ([6]; dose regimen 50 + 1.28 (μg/kg + μg/kg/min)) | % Inhibition of Thrombosis ([6]; dose regimen 75 + 1.93 (μg/kg + μg/kg/min)) | % Inhibition of Thrombosis ([6]; dose regimen 100 + 2.57 (μg/kg + μg/kg/min))
1 | no significant effects | 0.011 µM | 0.01 µM | 41 µM | NC(N)=NCCCC(N)C(=O)NCC(=O)NC(CCCN=C(N)N)C(=O)c1nccs1 [H-D-Arg-Gly-Arg-thiazole, H-(D)-Arg-Gly-Arg-Thiazole] | 1.00 ± 0.00 fold | 1.00 ± 0.03 fold | 1.00 ± 0.00 fold | 1.02 ± 0.03 fold | 0.83 ± 0.00 fold | 1.08 ± 0.02 fold | no significant effect | no significant effect | demonstrated antithrombotic efficacy | -7.84% | 42.95% | 117.72%
2 |  |  |  | 10 µM | N=C(N)NCCC[C@H](NC(=O)CNC(=O)[C@@H](CCCNC(=N)N)NS(=O)(=O)Cc1ccccc1)C(=O)c1nccs1 [BriSO2 -(D)-Arg-Gly-Arg-thiazole, BnSO2 -(D)-Ar g-Gly-Arg-Thiazole] |  |  |  |  |  |  |  |  |  |  |  | 
